# Reference: US9273084B2, “Moenomycin analogs, methods of synthesis, and uses thereof” (priority 2012, dated 2016)
# Where a name gives a salt, the structure may show the parent alone.
# Assays:
# S. pneumoniae 6303 = assay: MIC assay, 96 well broth dilution with MTT staining; format: cell-based; settings: TSB containing 5% sheep blood, 35-37° C., 20 h
# Method: (§1) A 96 well plate with 100 μL test medium in all wells was prepared by handheld multipipettor. A stock solution of the antibiotic or compound in DMSO (0.05˜10 mg/mL, 5 μL) and the same medium (95 μL) were put together into column one, where the compound concentration doubled the highest one to be tested. Two columns were necessary for each compound to check the reproducibility. The compound was diluted by adding 100 μL from column one to column two with a 50% volume mix done three times; diluting serially across the plate was continued.
# (§2) The day before the assay was scheduled to be run, strains were suspended in the test media (Brain Heart Infusion (BHI) containing 0.1% casamino acids for S. aureus, S. epidermidis, and E. faecalis, Trypticase Soy Broth (TSB) containing 5% sheep blood for S. pneumoniae, and Lysogeny Broth (LB) for E. coli) and incubated overnight at 35-37° C. The suspension was diluted with the same media to 1%, 100 μL of which was added to each well of the MIC plate. The MIC plate was incubated at 35-37° C. for 20 h. A thiazolyl blue tetrazolium bromide (MTT) solution (1 mg/mL-water, 50 μL) was added into each well and the resulting MIC plate was incubated at 35-37° C. for a few hours to stain wells in which cell proliferated. Growth is also visible as any turbidity in wells.
# S. pneumoniae #1629 = assay: as above; format: cell-based; settings: TSB containing 5% sheep blood, 35-37° C., 20 h
# Method: as §1, §2
# E. coli NR698 = format: cell-based; set-up: unit not given beside the values; settings: LB, 35-37° C., 20 h
# Method: as §1, §2
# E. faecalis 33186 = assay: MIC assay, 96 well broth dilution with MTT staining; format: cell-based; set-up: unit not given beside the values; settings: BHI containing 0.1% casamino acids, 35-37° C., 20 h
# Method: as §1, §2
# E. coli MG1655 = assay: as above; format: cell-based; set-up: unit not given beside the values; settings: LB, 35-37° C., 20 h
# Method: as §1, §2
# S. epidermidis 1228 = assay: as above; format: cell-based; set-up: unit not given beside the values; settings: BHI containing 0.1% casamino acids, 35-37° C., 20 h
# Method: as §1, §2
# S. aureus 25923 = assay: as above; format: cell-based; set-up: unit not given beside the values; settings: S. aureus 25923 (second strain line); BHI containing 0.1% casamino acids; 35-37° C., 20 h
# Method: as §1, §2
# S. aureus 13709 = assay: as above; format: cell-based; set-up: unit not given beside the values; settings: BHI containing 0.1% casamino acids, 35-37° C., 20 h
# Method: as §1, §2
# S. epidermidis 700562 = assay: as above; format: cell-based; set-up: unit not given beside the values; settings: BHI containing 0.1% casamino acids, 35-37° C., 20 h
# Method: as §1, §2
# E. faecalis 29212 = assay: as above; format: cell-based; set-up: unit not given beside the values; settings: BHI containing 0.1% casamino acids, 35-37° C., 20 h
# Method: as §1, §2
# [1] = Pharmacokinetics following IV and SC administration; format: in vivo; settings: for half-life: NCA analysis
# Method: Curtailing the tail portion of Moenomycin A (MmA) led to shorter half-life. […] The clearance following IV administration was very low leading higher exposure (3 mL/hr/kg) and volume of distribution (Vss) was 0.5 L/kg.
# Gram-positive organisms = settings: against Gram-positive organisms; cited from earlier work
# [2] = S. aureus 13709 (first strain line)
# [3] = S. aureus 13709 (third strain line)
SMILES,MIC (S. pneumoniae 6303),MIC (S. pneumoniae #1629),MIC (E. coli NR698),MIC (E. faecalis 33186),MIC (E. coli MG1655),MIC (S. epidermidis 1228),MIC (S. aureus 25923),MIC (S. aureus 13709; [2]),MIC (S. aureus 13709; [3]),MIC (S. epidermidis 700562),MIC (E. faecalis 29212),clearance ([1]; IV administration (2 mpk)) [mL/h/kg],volume of distribution (Vss) ([1]; IV administration (2 mpk)) [L/kg],half-life ([1]; IV administration (2 mpk)) [days],% SC bioavailability ([1]; SC (10 mpk) vs IV (2 mpk)) [%],half-life ([1]; SC administration (10 mpk)) [days],systemic exposure ([1]; following IV (2 mpk) and SC (10 mpk) administration),potency compared with vancomycin (Gram-positive organisms)
"CC(=O)NC1C(OC2C(COC3OC(CO)C(O)C(O)C3O)OC(OC3C(OP(=O)(O)OCC(OCC=C(C)CCC=C(C)CCC=C(C)C)C(=O)O)OC(C(N)=O)C(C)(O)C3OC(N)=O)C(NC(C)=O)C2O)OC(C)C(OC2OC(C(=O)NC3=C(O)CCC3=O)C(O)C(O)C2O)C1O.N [1c, N1-[(2-Hydroxy-5-oxo-cyclopenten-1-yl)-(5S)-β-D-galactopyranuronamide]-(1→4)-2-acetamide-2,6-dideoxy-β-D-gluopyranosyl-(1→4)-[β-D-glucopyranosyl-(1→6)]-2-acetamido-2-deoxy-β-D-glucopyranosyl)-(1→2)-3-O-carbamoyl-1-O—{[(R)-2-carboxy-2-((2Z,6E)-3,7,11-trimethyl-dodeca-2,6,10-trien-1-yloxy)ethoxy]hydroxyphosphoryl}-4-C-methyl-α-D-glucopyranuronamide]",63,31,0.98,250 >250,> 250,>250 >250,>250 >250 250,>250 >250 250,>250 >250 250,>250 >250,250 >250,–,–,–,–,–,–,–
"CCCCCCCCCCCCCCCCOC(COP(=O)(O)OC1OC(C(N)=O)C(C)(O)C(OC(N)=O)C1OC1OC(COC2OC(CO)C(O)C(O)C2O)C(OC2OC(C)C(OC3OC(C(=O)NC4=C(O)CCC4=O)C(O)C(O)C3O)C(O)C2NC(C)=O)C(O)C1NC(C)=O)C(=O)O.N [1g, N1-[(2-Hydroxy-5-oxo-cyclopenten-1-yl)-(5S)-β-D-galactopyranuronamide]-(1→4)-2-acetamide-2,6-dideoxy-β-D-gluopyranosyl-(1→4)-[β-D-glucopyranosyl-(1→6)]-2-acetamido-2-deoxy-β-D-glucopyranosyl)-(1→2)-3-O-carbamoyl-1-O—{[(R)-2-carboxy-2-(hexadecan-1-yloxy)ethoxy]hydroxyphosphoryl}-4-C-methyl-α-D-glucopyranuronamide]",16,16,0.16,16,250,16,16,16,16,31,31,–,–,–,–,–,–,–
"CN[C@H](CC(C)C)C(=O)N[C@H]1C(=O)N[C@@H](CC(N)=O)C(=O)N[C@H]2C(=O)N[C@H]3C(=O)N[C@H](C(=O)N[C@H](C(=O)O)c4cc(O)cc(O)c4-c4cc3ccc4O)[C@H](O)c3ccc(c(Cl)c3)Oc3cc2cc(c3O[C@@H]2O[C@H](CO)[C@@H](O)[C@H](O)[C@H]2O[C@H]2C[C@](C)(N)[C@H](O)[C@H](C)O2)Oc2ccc(cc2Cl)[C@H]1O [Vancomycin•HCl, reference compound]",0.49,0.49,0.49,2.0,250,2.0,3.9,3.9,2.0,3.9,3.9,–,–,–,–,–,–,–
C=C(C/C=C(\C)CCC=C(C)C)CCC(C)(C)/C=C/CC/C(C)=C/CO[C@@H](COP(=O)(O)O[C@H]1O[C@H](C(N)=O)[C@@](C)(O)[C@H](OC(N)=O)[C@H]1O[C@@H]1O[C@H](CO[C@@H]2O[C@H](CO)[C@@H](O)[C@H](O)[C@H]2O)[C@@H](O[C@@H]2O[C@H](C)[C@@H](O[C@@H]3O[C@H](C(=O)NC4=C(O)CCC4=O)[C@H](O)[C@H](O)[C@H]3O)[C@H](O)[C@H]2NC(C)=O)[C@H](O)[C@H]1NC(C)=O)C(=O)O [Moenomycin A],–,–,0.0098,–,31,–,0.16,0.16,0.078,–,–,3,0.5,8.7,89,7.5,significant systemic exposure,10-1000 times
